Earlier results, collected in US11612566B2, “Lamotrigine oral liquid suspension and use thereof” (OWP Pharmaceuticals, Inc., priority 2019, dated 2023).

Conditions: BCS class II molecule; poorly soluble in water

- solubility: low
SMILES: Nc1nnc(-c2cccc(Cl)c2Cl)c(N)n1 [Lamotrigine, 6-(2,3-dichlorophenyl)-1,2,4-triazine-3,5-diamine]
